# From ChEMBL document CHEMBL3044906, “Synthesis and blood glucose lowering activity of some novel benzenesulfonylthiourea derivatives substituted with 6-aryl-4,5-dihyropyridazin-3(2H)-ones” (2012)
# Active and inactive are the calls of the source. No cut-off for these calls is given here.
# Key:
# Rattus norvegicus [1] = assay: Antihyperglycemic activity in Rattus norvegicus Wistar albino (rat) assessed as reduction in blood glucose level at 20 mg/kg, po administered 30 min before 3 g/kg, po glucose challenge by oral glucose tolerance test; assay type: functional
# Rattus norvegicus [2] = assay: Antihyperglycemic activity in Rattus norvegicus Wistar albino (rat) assessed as blood glucose level at 20 mg/kg, po administered 30 min before 3 g/kg, po glucose challenge by oral glucose tolerance test (reference value: 149 +/- 6.3 mg/dl); assay type: functional
SMILES,inhibition in vivo at 20 mg/kg (Rattus norvegicus [1]),Activity (Rattus norvegicus [2]),inhibition (Rattus norvegicus [1])
CCCNC(=S)NS(=O)(=O)c1ccc(N2N=C(c3ccc(C)cc3)CCC2=O)cc1,30.9%,134.5 mg/dL,–
CCCNC(=S)NS(=O)(=O)c1ccc(N2N=C(c3ccccc3)CCC2=O)cc1,–,160 mg/dL,inactive
O=C1CCC(c2ccc(-c3ccccc3)cc2)=NN1c1ccc(S(=O)(=O)NC(=S)NCc2ccccc2)cc1,24.8%,137.5 mg/dL,–
O=C1CCC(c2ccc(Cl)cc2)=NN1c1ccc(S(=O)(=O)NC(=S)NCc2ccccc2)cc1,38.8%,128.5 mg/dL,–
O=C1CCC(c2ccc(Cl)cc2)=NN1c1ccc(S(=O)(=O)NC(=S)Nc2ccccc2)cc1,4.7%,148 mg/dL,–
O=C1CCC(c2ccc(Oc3ccccc3)cc2)=NN1c1ccc(S(=O)(=O)NC(=S)NCc2ccccc2)cc1,3%,147.5 mg/dL,–
COc1ccc(C2=NN(c3ccc(S(=O)(=O)NC(=S)Nc4ccccc4)cc3)C(=O)CC2)cc1,–,170.5 mg/dL,inactive
O=C1CCC(c2ccc(-c3ccccc3)cc2)=NN1c1ccc(S(=O)(=O)NC(=S)Nc2ccccc2)cc1,–,166 mg/dL,inactive
Cc1ccc(C2=NN(c3ccc(S(=O)(=O)NC(=S)NCc4ccccc4)cc3)C(=O)CC2)cc1,21.3%,136 mg/dL,–
CCc1ccc(C2=NN(c3ccc(S(=O)(=O)NC(=S)NCc4ccccc4)cc3)C(=O)CC2)cc1,3.8%,148 mg/dL,–
CCCNC(=S)NS(=O)(=O)c1ccc(N2N=C(c3ccc(OC)cc3)CCC2=O)cc1,37.1%,132 mg/dL,–
O=C1CCC(c2ccccc2)=NN1c1ccc(S(=O)(=O)NC(=S)NCc2ccccc2)cc1,26.6%,139 mg/dL,–
CCCNC(=S)NS(=O)(=O)c1ccc(N2N=C(c3ccc(Cl)cc3)CCC2=O)cc1,32.7%,132.5 mg/dL,–
COc1ccc(C2=NN(c3ccc(S(=O)(=O)NC(=S)NCc4ccccc4)cc3)C(=O)CC2)cc1,5.6%,152 mg/dL,–
COc1ccc(Cl)cc1C(=O)NCCc1ccc(S(=O)(=O)NC(=O)NC2CCCCC2)cc1 [GLYBURIDE],–,94.3 mg/dL,–
CCCNC(=S)NS(=O)(=O)c1ccc(N2N=C(c3ccc(Oc4ccccc4)cc3)CCC2=O)cc1,–,152 mg/dL,inactive
